Measurements from patent publication EP2753335B1, “AN ANTHRACYCLINE FOR THE TREATMENT OF SEPSIS” (Instituto de Medicina Molecular, priority 2011, dated 2013).
Where a name gives a salt, the structure may show the parent alone. Read-outs that look alike come from different tables or passages of the source.

What was measured:
[1] = tested on: C57BL/6 mice subjected to CLP; assay: Cecal ligation and puncture (CLP) mouse model of severe sepsis, survival; format: in vivo; conditions: for protection against severe CLP (survival, in words): doxorubicin 0.5ug/g, daunorubicin 0.6µg/g body weight at the time of procedure and 24 hours later, Figure 6
Protocol: We choose the cecal ligation and puncture (CLP) mouse model to investigate the in vivo effects of epirubicin. In CLP, sepsis results from a polymicrobial infectious abdominal origin, leading to bacteraemia and a systemic inflammatory response^15.
Animal care and experimental procedures were conducted in accordance with Portuguese and US guidelines and regulations after approval by the respective local committees (Instituto de Medicina Molecular and Instituto Gulbenkian de Ciência). All mice used were 8-12 weeks old. Mice were bred and maintained under specific pathogen-free (SPF) conditions. C57BL/6 and C57BL/6 ATM^-/- were obtained from the Instituto Gulbenkian de Ciência (a kind gift from Dr. Vasco Barreto). C57BL/6 Nrf2^-/- mice were provided originally from the RIKEN BioResource Center (Koyadai, Tsukuba, Ibaraki, Japan)^31 and subsequently at the Institute Gulbenkian de Ciência. Cecal Ligation and Puncture was performed as described previously^15.

TNF = assay: In vitro chemical screen (Spectrum collection): TNF secretion by E. coli challenged THP-1 cells, DAS-ELISA; format: cell-based, human
Protocol: (§1) We identified 45 leading candidates (Figure 1A and Table I) that inhibited both cytokines.
(§2) THP-1 human monocytes (American Tissue Culture Collection-ATCC TIB-202) were plated in 96 well plates at 10^6 cell/ml and incubated with each one of ∼2320 compounds included in the Spectrum collection (Microsource Discovery Systems, Gaylordsville, CT) at 10µM for 1 hour. Cells were then challenged with 4% PFA-fixed DH5α E.coli at a Multiplicity of Infection (MOI) of 20 bacterial cells per THP-1 cell for an additional 24 hours. The cell supernatants were collected and IL-1β and TNF cytokines quantified by DAS-ELISA, using Human IL-1β/IL-1F2 DuoSet® and Human TNF DuoSet® (R&D Systems ®), respectively, according to company's protocol.
(§3) We generated a working subset of The RNAi Consortium (TRC) shRNA lentiviral vector library ^33,33 that allows for the silencing of most of the genes that are either human kinases or phosphatases. This subset was composed of 1440 individually arrayed lentiviral shRNA vectors targeting ∼700 genes, after selecting the most efficient shRNAs (two on average) based on available silencing efficiency data from the Broad Institute of MIT and Harvard. THP-1 cells were plated in 96 well plates at 10^6 cell/ml and infected with shRNA-expressing lentivirus. 48 hrs later infected cells were selected with puromycin. After the 3 days of selection, plates were duplicated. One of the plates was used to measure the cell number using Alamar Blue® cell viability assay (Invitrogeia®), according to manufacturer's instructions. In the other plate, cells were stimulated with 4% PFA-fixed DH5α E.coli at a Multiplicity of Infection (MOI) of 20 bacterial cells per THP-1 cell. Twenty-four hours after stimulation, cell supernatants were collected and IL-1β and TNF cytokines quantified by DAS-ELISA. All data values from IL-1β and TNF secretion assays were normalized by dividing the amount of IL-1β and TNF in the conditioned media 24, 12, 8, 6, 4 or 2 hrs after E. coli stimulation by the number of cells in each well and then by the average concentration per cell of the plate. Results were logarithmic natural transformed. Scores were sorted in ascending order and graphed. We calculated 1.5 SDEVs above and below the mean to identify the genes that changed IL-1β and TNF secretion when silenced. The same approach was used to identify the compounds that changed IL-1β and TNF secretion. The selected genes were submitted to two or more rounds of phenotypic validation.

IL-1β = assay: In vitro chemical screen (Spectrum collection): IL-1β secretion by E. coli challenged THP-1 cells, DAS-ELISA; format: cell-based, human
Protocol: as §1, §2, §3

[2] = THP-1 cells, 10µM compound for 1 hour, then PFA-fixed E. coli (MOI 20) for 24 hours

Row | Compound | Z score TNFa (TNF; [2]) | Z score IL1b (IL-1β; [2]) | other results
1 | COc1cccc2c1C(=O)c1c(O)c3c(c(O)c1C2=O)C[C@@](O)(C(C)=O)C[C@@H]3O[C@H]1C[C@H](N)[C@H](O)[C@H](C)O1 [Daunorubicin] | -3,007093086 | -0,995459172 | protection against severe CLP (survival, in words) [1]: comparable protection
2 | Cc1c(O)c(O)cc2c1CC=C1[C@@]2(C)CC[C@@]2(C)[C@@H]3C[C@](C)(C(=O)O)CC[C@]3(C)CC[C@]12C [Dihydrocelastrol] | -3,387513735 | -1,102010407 | –
3 | CC(C)=CCCC1(C)C=Cc2c(O)c3c(c(CC=C(C)C)c2O1)OC12C(=CC4CC1C(C)(C)OC2(C/C=C(/C)C(=O)O)C4O)C3=O (stereo not drawn) [Dihydrogambogic acid] | -2,488781431 | -1,48996453 | –
4 | COc1cccc2c1C(=O)c1c(O)c3c(c(O)c1C2=O)C[C@@](O)(C(=O)CO)C[C@@H]3O[C@H]1C[C@H](N)[C@H](O)[C@H](C)O1 [Doxorubicin] | -4,071115136 | -2,412138965 | protection against severe CLP (survival, in words) [1]: comparable protection
5 | CS(=O)(=O)CCCCN=C=S [Erysolin] | -4,442389411 | -1,162701697 | –
6 | CCOc1ccc2nc3cc(N)ccc3c(N)c2c1 [Ethacridine lactate] | -2,218841761 | -1,389229184 | –
7 | CC(C)=CCC[C@]1(C)C=Cc2c(O)c3c(c(CC=C(C)C)c2O1)O[C@]12C(=C[C@@H]4CC1C(C)(C)O[C@@]2(C/C=C(/C)C(N)=O)C4=O)C3=O [Gambogic acid amide] | -3,013926221 | -1,517154207 | –
8 | CC(C)=CCC[C@]1(C)C=Cc2c(O)c3c(c(CC=C(C)C)c2O1)O[C@]12C(=C[C@@H]4C[C@H]1C(C)(C)O[C@@]2(C/C=C(/C)C(=O)O)C4=O)C3=O [Gambogic acid] | -3,862359373 | -1,529656531 | –
9 | CN(C)c1ccc(C(=C2C=CC(=[N+](C)C)C=C2)c2ccc(N(C)C)cc2)cc1 [Gentian violet] | -2,696385799 | -1,835724332 | –
10 | C=C1C(=O)O[C@@H]2C[C@@]3(C)CCC[C@H](C)C3=C[C@H]12 [Helenine] | -2,683894042 | -0,943744357 | –
11 | CCCCC(=O)O[C@]1(C(=O)CO)CC[C@H]2[C@@H]3CCC4=CC(=O)CC[C@]4(C)[C@H]3[C@@H](O)C[C@@]21C [Hydrocortisone valerate] | -2,794271243 | -2,722889618 | –
12 | COc1cc2oc3cc(OC)c(OC)c(CC=C(C)C)c3c(=O)c2c(OC)c1CC=C(C)C [Mangostin trimethyl ether] | -3,162805301 | -1,634164354 | –
13 | O=C1c2c(O)ccc(O)c2C(=O)c2c(NCCNCCO)ccc(NCCNCCO)c21 [Mitoxanthrone hydrochloride] | -2,562729474 | -1,158920135 | –
14 | COC1=CC(=O)C(O)=C/C1=C\C=C\c1ccccc1 [Obtusaquinone] | -3,829374842 | -1,532189516 | –
15 | O=C1C=C2C(=CCOC2O)O1 (stereo not drawn) [Patulin] | – | – | Z score TNFa (TNF): -2,874616362; Z score IL1b (IL-1β): -0,902703858
16 | CC(C)=CC1C(C(=O)OCc2cccc(Oc3ccccc3)c2)C1(C)C (stereo not drawn) [Phenothrin] | -2,810792588 | -0,983918754 | –
17 | C[C@]12C=CC(=O)C=C1CC[C@@H]1[C@@H]2[C@@H](O)C[C@@]2(C)[C@H]1CC[C@]2(O)C(=O)COC(=O)CCC(=O)O [Prednisolone hemisuccinate] | -2,72427413 | -2,095888301 | –
18 | COC(=O)[C@]1(C)CC[C@]2(C)CC[C@]3(C)C4=CC=C5C(=CC(=O)C(O)=C5C)[C@]4(C)CC[C@@]3(C)[C@@H]2C1 [Pristimerin] | -3,474946679 | -0,952562058 | –
19 | CC[C@@]1(O)C[C@H](O[C@H]2C[C@H](N(C)C)[C@H](O)[C@H](C)O2)c2c(cc3c(c2O)C(=O)c2c(O)ccc(O)c2C3=O)[C@H]1C(=O)OC [Pyrromycin] | -2,980583694 | -1,456377283 | –
20 | Cc1cc(/C=C/c2ccc3cc(N(C)C)ccc3[n+]2C)c(C)n1-c1ccccc1 [Pyrvinium pamoate] | -2,268148981 | -1,683811286 | –
21 | C[n+]1cc2c3c(ccc2c2ccc4cc5c(cc4c21)OCO5)OCO3 [Sanguinarine sulfate] | -2,651620816 | -1,160017114 | –
22 | C[C@H]1CC[C@]2(NC1)O[C@H]1C[C@H]3[C@@H]4CC[C@H]5C[C@@H](O[C@@H]6O[C@H](CO)[C@H](O[C@@H]7O[C@H](CO)[C@@H](O)[C@H](O[C@@H]8OC[C@@H](O)[C@H](O)[C@H]8O)[C@H]7O[C@@H]7O[C@H](CO)[C@@H](O)[C@H](O)[C@H]7O)[C@H](O)[C@H]6O)CC[C@]5(C)[C@H]4CC[C@]3(C)[C@H]1[C@@H]2C [Tomatine] | -4,440219344 | -2,626087357 | –
23 | COc1cc([C@@H]2c3cc4c(cc3[C@@H](O[C@@H]3O[C@@H]5CO[C@@H](C)O[C@H]5[C@H](O)[C@H]3O)[C@H]3COC(=O)[C@H]23)OCO4)cc(OC)c1O [etoposide] | – | – | rescue of mortality induced by CLP ([1]; etoposide 2.0µg/g body weight, at the time of procedure and 24 hours later, wildtype C57BL/6): only partially rescues the mortality induced by CLP
24 | C=C1C(=O)O[C@@H]2[C@H]3O[C@]3(C)CC/C=C(\C)CC[C@@H]12 [parthenolide] | -2,842267433 | -0,921962794 | –
25 | Colistin sulfate | -3,457325884 | -0,918619053 | –
26 | Gramicidin | -2,91855912 | -1,84556962 | –
27 | Mepartricin | -2,504992413 | -1,081865327 | –
28 | Pyrithione zinc | -2,951809549 | -1,872292546 | –
